Results as given in US4470926A, “Medicaments containing thymosin alpha 1 fragments and having an immunostimulant action, and fragments of thymosin alpha 1” (priority 1980, dated 1984).
Where two headings read alike, the source gives them in different places. Residues, ends and D or L forms follow the SMILES beside them. No end group written: not given here.

Assays:
[1] = test system: human peripheral lymphocytes; format: cell-based; conditions: for Optimum concentr.: concentration of optimum E-rosette stimulation after α-amanitin block; for Relative number of the E-rosettes (%): after inhibition with α-amanitin
From the text: The immunological test methods used were the E-rosette test according to Wara, Ammann et al. (N.Y. Acad. Sci. 249 (1975) 308 and N. Engl. J. Med. 292 (1975) 70) and the method of mixed lymphocyte culture, both methods involving additional inhibition of cellular RNS polymerase by alpha-amanitin. The E-rosette test is based on the fact that the percentage of E-rosette forming cells in peripheral human blood is a measure of the content of fully mature T-cells, which form with sheep's red blood cells characteristic aggregates which can be counted under the microscope.
For the performance of the E-rosette test, peripheral human lymphocytes are isolated by a gradient centrifugation. Their RNS polymerase is blocked by alpha-amanitin. […] This value is taken as 100% in a relative numerical scale, and after the alpha-amanitin blockage it is taken to be 0%; see Table XII.

[2] = test system: human peripheral lymphocytes; format: cell-based; conditions: for stimulation (+) / inhibition (-) (%) of the mixed lymphocyte culture: 1 μg fragment per ml; for (%) Stimulation of allogenic mixed culture: 1 microgram thymosin α1 per ml
Procedure: The test in mixed lymphocyte cultures is based on the fact that T-cells are made to proliferate by stimulation with allogenic antigens. For the performance of the test, the lymphocytes of donor A ("responder") are incubated with those of donor B ("stimulator") for 4 to 5 days. Then ^3 H-thymidin is added and the rate of proliferation is measured on the basis of the increasing radioactivity of the cell culture due to the installation of the radioactive material. Since both populations A and B might be made to proliferate, resulting in an unclear effect, population B is blocked with mitomycin C in all metabolical activities. This test is routinely used before organ transplants to determine the immunological compatibility of donor and receiver tissues.

[3] = cell pair AB, culture blocked with 1 μg α-amanitin per ml
[4] = cell pair AB, not blocked with amanitin, culture without addition = 0%
[5] = cell pair BA, culture blocked with 1 μg α-amanitin per ml
[6] = cell pair CD, culture blocked with 1 μg α-amanitin per ml
[7] = cell pair CD, not blocked with amanitin, culture without addition = 0%
[8] = cell pair DC, culture blocked with 1 μg α-amanitin per ml
[9] = after α-amanitin block (=0%), normal level without any addition = 100%, at optimum concentration
[10] = cell pair BA, not blocked with amanitin, culture without addition = 0%
[11] = cell pair DC, not blocked with amanitin, culture without addition = 0%

Row | Molecule | activity in the E-rosette test (in words) [1] | Optimum concentr. [1] | stimulation (+) / inhibition (-) (%) of the mixed lymphocyte culture [2, 3] | stimulation (+) / inhibition (-) (%) of the mixed lymphocyte culture [2, 4] | stimulation (+) / inhibition (-) (%) of the mixed lymphocyte culture [2, 5] | stimulation (+) / inhibition (-) (%) of the mixed lymphocyte culture [2, 6] | stimulation (+) / inhibition (-) (%) of the mixed lymphocyte culture [2, 7] | stimulation (+) / inhibition (-) (%) of the mixed lymphocyte culture [2, 8] | E-rosette number (%) [1, 9] | stimulation (+) / inhibition (-) (%) of the mixed lymphocyte culture [2, 11] | action in the mixed lymphocyte culture (in words) [2] | other results
1 | TKDLKEKKEVVEEAEN [VII] | more strongly stimulated | 6 µM |  |  |  |  |  |  |  |  |  | E-rosette number (%) [1]: 41%
2 | KEVVEEAEN [VI] |  | 10 µM | +279% | +153% | -96% | +83% | +57% | +160% | 16% |  |  | 
3 | TSSEIT [II] |  | 80 µM | -11% |  | -80% | -98% | -53% | +20% | 29% | +30% |  | stimulation (+) / inhibition (-) (%) of the mixed lymphocyte culture [2, 10]: -18%
4 | KDAAVD [Ia] | especially active | 16 µM | -10% | -8% |  | -53% | -73% | -7% | 93% | -31% | surprisingly pronounced inhibiting action | stimulation (+) / inhibition (-) (%) of the mixed lymphocyte culture [2, 10]: -15%
5 | C[C@H](NC(=O)[C@@H](N)CCC(=O)O)C(=O)N[C@@H](CCC(=O)O)C(=O)N[C@@H](CC(N)=O)C(=O)O [V] (H-EAEN-OH) | activity in the E-rosette test only at a relatively high dosage | 113 µM | -47% | +223% | -94% |  | +45% |  | 42% | +37% | very considerable stimulation of T-cell proliferation | 
6 | Synthetic thymosin α1: parent substance, totally synthetic thymosin α1, 28 amino acids, analytically pure (SDAAVDTSSEITTKDLKEKKEVVEEAEN; ends and bridges not checked; UniProt P06454 2-29, looked up) [reference compound] |  | 1.6 µM |  |  |  |  |  |  | 100% |  |  | (%) Stimulation of allogenic mixed culture ([2]; cell pair AB, (a) culture not inhibited, without addition = 0%): +20%; (%) Stimulation of allogenic mixed culture ([2]; cell pair AB, (b) culture inhibited with 1 microgram amanitin per ml): +86%; (%) Stimulation of allogenic mixed culture ([2]; cell pair AD, (a) culture not inhibited): +4%; (%) Stimulation of allogenic mixed culture ([2]; cell pair AD, (b) culture inhibited with 1 microgram amanitin per ml): +37%; (%) Stimulation of allogenic mixed culture ([2]; cell pair BA, (a) culture not inhibited): +27%; (%) Stimulation of allogenic mixed culture ([2]; cell pair BA, (b) culture inhibited with 1 microgram amanitin per ml): +47%; (%) Stimulation of allogenic mixed culture ([2]; cell pair BD, (a) culture not inhibited): +45%; (%) Stimulation of allogenic mixed culture ([2]; cell pair BD, (b) culture inhibited with 1 microgram amanitin per ml): +51%; (%) Stimulation of allogenic mixed culture ([2]; cell pair DA, (a) culture not inhibited): +44%; (%) Stimulation of allogenic mixed culture ([2]; cell pair DB, (a) culture not inhibited): +27%; (%) Stimulation of allogenic mixed culture ([2]; cell pair DB, (b) culture inhibited with 1 microgram amanitin per ml): +1550%; Relative number of the E-rosettes (%) ([1]; 0.25 μg per culture): 39%; Relative number of the E-rosettes (%) ([1]; 0.50 μg per culture): 100%; Relative number of the E-rosettes (%) ([1]; 1.00 μg per culture): 64%; Relative number of the E-rosettes (%) ([1]; 2.50 μg per culture): 57%; Relative number of the E-rosettes (%) ([1]; 5.00 μg per culture): 33%
7 | KEVVE [IV] | activity in the E-rosette test only at a relatively high dosage | 83 µM | -87% | -53% | -97% | +35% | +37% | +100% | 45% | +2% | very considerable stimulation of T-cell proliferation | 
8 | Ac-SDAAVDTSSEIT [IX] | more strongly stimulated | 4 µM | -30% | -74% | -78% | +63% | -63% | +60% | 40% | -77% | surprisingly pronounced inhibiting action | 
